# Patent US20200121604A1, “SOLID FOSMETPANTOTENATE FORMULATIONS” (Retrophin, Inc., priority 2017, published 2020)
# Tests used:
# [1] = test system: wild-type and PanK2-deficient IRM32 cells; experiment: Half-life of Coenzyme A in cells treated with labeled fosmetpantotenate or pantothenic acid; format: cell-based
# Description: The half-life of Coenzyme A (CoA) was determined for both wild-type and PanK2-deficient IRM32 cells.
# Stable isotopically labeled pantothenic acid (vitamin B5) and fosmetpantotenate, a compound currently in a Phase 3 clinical trial for the treatment of […], were prepared. The PanK2-deficient cell line was treated with labeled fosmetpantotenate (100 μM) while the parental IRM32 (WT) line was treated with labeled pantothenic acid. After 24 h the media was changed to complete media and the cells were harvested at various time points. The fraction of labeled CoA, both free and total, with respect to time 0 was calculated to determine the half-life of CoA under each of these conditions.
# [2] = Chemical stability of fosmetpantotenate with and without acetic acid, alone and with MCC, 30° C./65% RH, reverse-phase HPLC; format: physicochemical; details: weight percent; for Phenol (%): main degradant
# Description: Fosmetpantotenate was prepared and purified as in Examples 1 (“with acetic acid”) and Example 28 (“without acid”). Flowability and stability were analyzed for the acetic acid-containing fosmetpantotenate and the “without acid” fosmetpantotenate, alone and when formulated with MCC.
# For the MCC formulations, fosmetpantotenate was diluted 1:1 (w:w) with ethyl acetate (HPLC grade, EMD) to generate a solution of viscosity suitable for wet granulation. Porous MCC (Avicel® PH200) was sieved via 120 mesh (125 μm opening) to remove fine particles and then placed in a Freund-Vector GMX-LAB Micro high shear granulator (1 L stainless steel bowl). The impeller speed was kept at 125 rpm during the process. 40 g of 50 wt % fosmetpantotenate ethyl acetate solution (contains 20 g fosmetpantotenate) was added into 80 g substrate at approximately 8 g/min drop-wise via a glass transfer pipette to achieve a 20:80 fosmetpantotenate:MCC ratio (i.e., 20% drug loading by weight). The resulting materials were agitated for an additional 10 minutes followed by tray drying overnight at room temperature to facilitate removal of ethyl acetate.
# For the stability analysis, samples of fosmetpantotenate were subdivided and transferred into separate 20 mL clear scintillation vials (about 1 g sample per vial). Closed vials were then placed individually into 5″×7″ foil pouches (CADPAK N-HD, WVTR 0.0005 g/100 in^2/day at 90% RH 40° C.). followed by heat sealing the pouches without desiccant inside. Fosmetpantotenate powder samples were weighed (3 g) and placed directly into the same foil pouches described above, and heat sealed without desiccant inside. Closed samples were stored at 30° C./65% RH and measured after 0, 2, 4, and 8 weeks.
# Measurement of impurities was performed by reverse-phase HPLC, utilizing the methods in Table 10. Water:acetonitrile 95:5 (v:v) with 0.005% phosphoric acid was used to extract the API (fosmetpantotenate) from the granulation at concentration of 0.75 mg/mL on an active basis. The sample suspension was ultrasonicated for 10 minutes to ensure complete API extraction followed by filtration using 0.45 μm PTFE filters to remove insoluble materials (i.e., MCC in the granulation samples). The filtrates were then transferred to individual vials and analyzed by HPLC.
# [3] = reference substances; cited from earlier work
# [4] = Chemical stability of formulations, 30° C. and 65% relative humidity, closed containers, 12 weeks, total impurities by HPLC; format: physicochemical
# Description: A stability study was performed to assess the stability of fosmetpantotenate in the following formulations: 1 g fosmetpantotenate (“drug only”; containing approximately 10% acetic acid); 75 mg fosmetpantotenate EA capsules (10% ethyl acetate); 75 mg fosmetpantotenate LG-90 capsules (38% laurylglycol 90); fosmetpantotenate MCC granulation, as described in Example 2; and fosmetpantotenate mannitol granulation, as described in Example 3; and 25:75 fosmetpantotenate:HPMCAS-L Spray Dried Dispersion (SDD) granulation, as described in Example 24. Additionally, fosmetpantotenate without solid excipient or solvent (“drug only”) was stored closed in borosilicate glass vials. Formulations contained in soft gel capsules were stored in closed HDPE bottles, and solid fosmetpantotentate granulation formulations were stored in closed foil-foil packaging. Stability samples were stored at ca. −20° C. (control samples) and at 30° C. and 65% relative humidity in closed containers for 12 weeks.
# The amount of total impurities was determined via integration of HPLC peak areas within 3 days after the formulations were prepared and before beginning storage (time=0 weeks). The amount of total impurities was measured again after 2 weeks, 4 weeks, 6 weeks, 8 weeks, and 12 weeks of storage. […]
# [5] = Accelerated stability of 10% drug loaded formulations, 25° C./60% RH, total related substances by HPLC; format: physicochemical; details: 10% drug loading
# Description: Fosmetpantotenate was thinned with ethyl acetate (EtOAc) at a 1:1 weight/weight ratio, and then blended with each solid excipient using a mortar and pestle on the 0.1 g scale of fosmetpantotenate, i.e., 0.2 g 50% (fosmetpantotenate/EtOAc)+0.9 g solid. The resulting materials were dried overnight at room temperature in a HEPA hood to remove excess EtOAc.
# The formulations were stored under accelerated stability conditions (25° C./60% relative humidity (RH)) for 4 weeks. Some samples were stored in “open” conditions, i.e., exposed to air; other samples were stored in closed containers. The amount of impurities was measured at beginning of storage (t=0), after 2 weeks of storage (t=2 weeks), and after 4 weeks of storage (t=4 weeks). The amount of impurities (total related substances, expressed as a percentage) was determined using the methods described in Example 26 below.
# The amount of total impurities was determined via integration of HPLC peak areas within 3 days after the formulations were prepared and before beginning storage (time=0 weeks). The amount of total impurities was measured again after 2 weeks, 4 weeks, 6 weeks, 8 weeks, and 12 weeks of storage. Capsule samples for analysis were prepared by dissolving 5 capsules in a volumetric flask with H2O/ACN 50/50 (v/v) containing 0.1% (v/v) HCOOH. “Drug only” and granulation samples were prepared by adding the sample directly into a volumetric flask and diluting with H2O/ACN 50/50.
compound,measurement,setting,value
"CC(C)(COP(=O)(O)OP(=O)(O)OC[C@H]1O[C@@H](n2cnc3c(N)ncnc32)[C@H](O)[C@@H]1OP(=O)(O)O)[C@@H](O)C(=O)NCCC(=O)NCCS [CoA, Coenzyme A]","half-life of CoA, PanK2-deficient versus WT cells",[1],somewhat shorter in PanK2-deficient cells than in WT cells
"COC(=O)CCNC(=O)[C@H](O)C(C)(C)COP(=O)(N[C@@H](C)C(=O)OC)Oc1ccccc1 (some centres unmarked) [Fosmetpantotenate, no acid]",Phenol (%),"[2]; 30° C./65% RH closed, t = 2 wk",0.20%
same,Phenol (%),"[2]; 30° C./65% RH closed, t = 4 wk",0.42%
same,Phenol (%),"[2]; 30° C./65% RH closed, t = 8 wk",1.62%
same,Phenol (%),[2]; t = 0,0.12%
same,"Impurities, excluding phenol (%)","[2]; 30° C./65% RH closed, t = 2 wk",3.69%
same,Total impurities (%),"[2]; 30° C./65% RH closed, t = 2 wk",4.44%
same,"Impurities, excluding phenol (%)","[2]; 30° C./65% RH closed, t = 4 wk",7.01%
same,Total impurities (%),"[2]; 30° C./65% RH closed, t = 4 wk",8.54%
same,"Impurities, excluding phenol (%)","[2]; 30° C./65% RH closed, t = 8 wk",12.82%
same,Total impurities (%),"[2]; 30° C./65% RH closed, t = 8 wk",17.73%
same,"Impurities, excluding phenol (%)",[2]; t = 0,2.28%
same,Total impurities (%),[2]; t = 0,2.75%
O [Water],Viscosity (Cp),[3],1 Cp
"COC(=O)CCNC(=O)[C@H](O)C(C)(C)COP(=O)(N[C@@H](C)C(=O)OC)Oc1ccccc1 (stereo partly drawn) [fosmetpantotenate, methyl 3-((2R)-2-hydroxy-4-(((((S)-1-methoxy-1-oxopropan-2-yl)amino)(phenoxy)phosphoryl)oxy)-3,3-dimethylbutanamido)propanoate]",average amount of degradation per week,[4],2.6%
same,Total % Related Substances,"[5]; 25° C./60% RH, t = 2 weeks, Closed",5.76%
same,Total % Related Substances,"[5]; 25° C./60% RH, t = 2 weeks, Open",5.94%
same,Total % Related Substances,"[5]; 25° C./60% RH, t = 4 weeks, Closed",6.39%
same,Total % Related Substances,"[5]; 25° C./60% RH, t = 4 weeks, Open",6.29%
same,Total % Related Substances,[5]; t = 0,4.80%
